# In patent publication US20240228506A1, “RIPK1 INHIBITORS AND METHODS OF USE” (Merck Sharp & Dohme LLC, priority 2021, published 2024):
# Target: T1, GST-RIPK1 (recombinant GST-RIPK1 kinase domain (residues 1-327)) (Homo sapiens, UniProt Q13546)
# T1 construct: recombinant GST-RIPK1 kinase domain (residues 1-327) enzyme; made in house; host or cells: baculovirus-transfected Sf21 insect cells
# T1 sequence (Q13546 1-327): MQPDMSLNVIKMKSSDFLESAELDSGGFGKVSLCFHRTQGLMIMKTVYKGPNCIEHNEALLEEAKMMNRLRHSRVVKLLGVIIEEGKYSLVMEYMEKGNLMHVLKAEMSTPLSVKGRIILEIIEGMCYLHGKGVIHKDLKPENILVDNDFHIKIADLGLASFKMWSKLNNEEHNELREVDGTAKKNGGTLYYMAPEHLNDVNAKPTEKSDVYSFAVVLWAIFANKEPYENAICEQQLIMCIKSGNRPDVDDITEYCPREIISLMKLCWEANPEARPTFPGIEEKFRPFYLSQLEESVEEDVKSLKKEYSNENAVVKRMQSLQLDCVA
# Assay: RIPK1-ADP-Glo enzymatic assay
# Type: biochemical
# Settings: 25 nM GST-RIPK1, 300 μM ATP, 3 μM dephosphorylated-MBP; 30 minutes pre-incubation, 150 minutes reaction; ten-point titration
# Protocol: The enzymatic activity of RIPK1 is measured using an assay derived from ADP-Glo kit (Promega™), which provides a luminescent-based ADP detection system. Specifically, the ADP generated by RIPK1 kinase is proportionally detected as luminescent signals in a homogenous fashion. In this context, the assessment of the inhibitory effect of small molecules (EC50) is measured by the effectiveness of the compounds to inhibit the ATP to ADP conversion by RIPK1. In this assay, the potency (EC50) of each compound was determined from a ten-point (1:3 serial dilution; top compound concentration of 100000 nM) titration curve using the following outlined procedure. To each well of a white ProxiPlus 384 well-plate, […] of compound (1% DMSO in final assay volume of 3 μL) was dispensed, followed by the addition of 2 μL of 1× assay buffer (25 mM Hepes 7.3, 20 mM MgCl2, 50 mM NaCl, 1 mM DTT, 0.005% Tween20, and 0.02% BSA) containing 37.5 nM of GST-RIPK1 (recombinant GST-RIPK1 kinase domain (residues 1-327) enzyme produced from baculovirus-transfected Sf21 cells: MW=62 kDa). Plates were placed in an ambient temperature humidified chamber for a 30 minutes pre-incubation with compound. Subsequently, each reaction was initiated by the addition of 1 μL 1×assay buffer containing 900 μM ATP and […]. The final reaction in each well of 3 μL consists of 25 nM of GST-RIPK1, 300 μM ATP, and 3 μM dephosphorylated-MBP. Kinase reactions were allowed to proceed for 150 minutes prior to adding ADP-Glo reagents per Promega's outlined kit protocol. Dose-response curves were generated by plotting percent effect (% product conversion; Y-axis) vs. Log10 compound concentrations (X-axis). EC50 values were calculated using a non-linear regression, four-parameters sigmoidal dose-response model.
row,SMILES,IC50
1,"CC(C(=O)N1C[C@@H]2C[C@H]1c1cncc(C#N)c1O2)(C(F)F)C1CC1 (single isomer, unassigned) [Compound 1-89, (2S,5S)-4-(2-(R or S)-cyclopropyl-3,3-difluoro-2-methylpropanoyl)-2,3,4,5-tetrahydro-2,5-methanopyrido[3,4-f][1,4]oxazepine-9-carbonitrile]",43 nM
2,"N#Cc1cncc2c1O[C@H]1C[C@@H]2N(C(=O)C2(F)CC(Oc3ccc(F)cc3F)C2)C1 (single isomer, unassigned) [Compound 1-106, (2S,5S)-4-(3-(2,4-difluorophenoxy)-1-(R or S)-fluorocyclobutane-1-carbonyl)-2,3,4,5-tetrahydro-2,5-methanopyrido[3,4-f][1,4]oxazepine-9-carbonitrile]",60 nM
3,"N#Cc1cncc2c1O[C@H]1C[C@@H]2N(C(=O)C2(F)CC(Oc3ccc(F)cc3F)C2)C1 (single isomer, unassigned) [Compound 1-107, (2S,5S)-4-(3-(2,4-difluorophenoxy)-1-(R or S)-fluorocyclobutane-1-carbonyl)-2,3,4,5-tetrahydro-2,5-methanopyrido[3,4-f][1,4]oxazepine-9-carbonitrile]",23 nM
4,"CCC(C)(C#N)C(=O)N1C[C@@H]2C[C@H]1c1cncc(C#N)c1O2 (single isomer, unassigned) [Compound 1-112, (2S,5S)-4-(2-(R or S)-cyano-2-methylbutanoyl)-2,3,4,5-tetrahydro-2,5-methanopyrido[3,4-f][1,4]oxazepine-9-carbonitrile]",252 nM
5,"CCC(C)(C#N)C(=O)N1C[C@@H]2C[C@H]1c1cncc(C#N)c1O2 (single isomer, unassigned) [Compound 1-113, (2S,5S)-4-(2-(R or S)-cyano-2-methylbutanoyl)-2,3,4,5-tetrahydro-2,5-methanopyrido[3,4-f][1,4]oxazepine-9-carbonitrile]",156 nM
6,"O=C(N1C[C@@H]2C[C@H]1c1cncc(F)c1O2)C12CCC(CC1(F)F)C2 (single isomer, unassigned) [Compound 2-18, (2,2-(S or R)-difluorobicyclo[2.2.1]heptan-1-yl)((28,5S)-9-fluoro-2,3-dihydro-2,5-methanopyrido[3,4-f][1,4]oxazepin-4(5H)-yl)methanone]",90 nM
7,"O=C(N1C[C@@H]2C[C@H]1c1cncc(F)c1O2)C12CCC(CC1(F)F)C2 (single isomer, unassigned) [Compound 2-19, (2,2-(S or R)-difluorobicyclo[2.2.1]heptan-1-yl)((2S,5S)-9-fluoro-2,3-dihydro-2,5-methanopyrido[3,4-f][1,4]oxazepin-4(5H)-yl)methanone]",453 nM
8,"CCC(C)(C#N)C(=O)N1C[C@@H]2C[C@H]1c1cncc(C#N)c1S2 (single isomer, unassigned) [Compound 4-9, (2S,5S)-4-(2-(R or S)-cyano-2-methylbutanoyl)-2,3,4,5-tetrahydro-2,5-methanopyrido[3,4-f][1,4]thiazepine-9-carbonitrile]",61 nM
9,"CCC(C)(C#N)C(=O)N1C[C@@H]2C[C@H]1c1cncc(C#N)c1S2 (single isomer, unassigned) [Compound 4-10, (2S,5S)-4-(2-(R or S)-cyano-2-methylbutanoyl)-2,3,4,5-tetrahydro-2,5-methanopyrido[3,4-f][1,4]thiazepine-9-carbonitrile]",43 nM
10,"C[C@@H]1C2CN(C(=O)C(C)(C)C(F)F)[C@H]1c1cncc(C#N)c1O2 (single isomer, unassigned) [Compound 5-3]",432 nM
11,"C[C@@H]1C2CN(C(=O)C34CCC(C(F)(F)F)(CC3)C4)[C@H]1c1cncc(C#N)c1O2 (single isomer, unassigned) [Compound 5-4]",165 nM
12,"CC(C)(C(=O)N1C[C@H]2Cc3c(C#N)cncc3[C@@H]1C2)C(F)F (single isomer, unassigned) [Compound 5-5]",1360 nM
13,"N#Cc1cncc2c1C[C@H]1C[C@@H]2N(C(=O)C23CCC(C(F)(F)F)(CC2)C3)C1 (single isomer, unassigned) [Compound 5-6]",123 nM
